Measured values taken from patent US7709643B2, “Synthesis of sodium narcistatin and related compounds” (Arizona Board of Regents, a body corporate of the State of …, priority 2005, dated 2010).
In brackets after ≈: the same amount, converted by molar mass.

Legend:
[1] = system: NCI panel of cancer cell lines; settings: J. Nat. Prod. 56:1682-1687, 1993; cited from earlier work
[2] = system: minipanel of human cancer cell lines and murine P388 lymphocytic leukemia; experiment: Minipanel of human cancer cell lines and murine P388 lymphocytic leukemia (summary in words); assay type: cell-based; settings: summary of the cancer cell line evaluations of Table 2
Procedure: (§1) The cyclic phosphate prodrugs, along with the parent compounds were evaluated against a minipanel of human cancer cell lines and murine P388 lymphocytic leukemia.
The corresponding 3,5-cyclic phosphates were less inhibitory under the experimental conditions employed. However, cleavage of the phosphate groups is expected to be very effective in vivo and such anticancer evaluations are now underway as part of the further preclinical development of these new anticancer drug candidates. (Pettit, G. R., et al., J. Nat. Prod. 2003, 66, 92-96.), (Dowlati, A., et al., Cancer Research 2002, 62, 3408-3416.), (Dziba, J. M., et al., Thyroid 2002, 12, 1063-1070.), (Eikesdal, H. P., et al., Cancer Lett. 2002, 178, 209-217.), (Prise, V., et al., Int. J. Oncology 2002, 21, 717-726.), (Hill, S. A., et al., Int. J. Cancer 2002, 102, 70-74.)

DU-145 = experiment: Human cancer cell line minipanel, Prostate DU-145; assay type: cell-based
Procedure: as §1

SF268 = experiment: Human cancer cell line minipanel, CNS SF268; assay type: cell-based
Procedure: as §1

RNA viruses = settings: J. Nat. Prod. 55:1569-1581; 1992; cited from earlier work
MCF-7 = experiment: Human cancer cell line minipanel, Breast MCF-7; assay type: cell-based
Procedure: as §1

[3] = Aqueous solubility at 25° C.; assay type: physicochemical
NCI-H460 = experiment: Human cancer cell line minipanel, Lung-NSC NCI-H460; assay type: cell-based
Procedure: as §1

BXPC-3 = experiment: Human cancer cell line minipanel, Pancreas-a BXPC-3; assay type: cell-based
Procedure: as §1

KM20L2 = experiment: Human cancer cell line minipanel, Colon KM20L2; assay type: cell-based
Procedure: as §1

| Structure (SMILES) | GI50 [1] | cancer cell growth inhibitory activity (in words) [2] | GI50 Prostate DU-145 (DU-145) | GI50 CNS SF268 (SF268) | activity against a range of RNA viruses (RNA viruses) | GI50 Breast MCF-7 (MCF-7) | Aqueous Solubility 25° C. [3] | GI50 Lung-NSC NCI-H460 (NCI-H460) | GI50 Pancreas-a BXPC-3 (BXPC-3) | GI50 Colon KM20L2 (KM20L2) |
| --- | --- | --- | --- | --- | --- | --- | --- | --- | --- | --- |
| O=C1N[C@H]2[C@H](O)[C@H](O)[C@@H](O)C[C@@H]2c2cc3c(c(O)c21)OCO3 (relative stereo) [1a, trans-dihydronarciclasine] | 12.6 nM | strong cancer cell growth inhibitory activity | 0.0066 µg/mL (≈ 0.0213 µM) | 0.020 µg/mL (≈ 0.0647 µM) | strong activity | 0.0053 µg/mL (≈ 0.0171 µM) | <1000 µg/mL | 0.0092 µg/mL (≈ 0.0297 µM) | 0.012 µg/mL (≈ 0.0388 µM) | 0.015 µg/mL (≈ 0.0485 µM) |
| O=C1N[C@H]2[C@H](O)[C@H](O)[C@@H](O)C[C@@H]2c2cc3c(cc21)OCO3 (relative stereo) [1c, 7-deoxy-trans-dihydronarciclasine] |  | strong cancer cell growth inhibitory activity | 0.040 µg/mL (≈ 0.136 µM) | 0.059 µg/mL (≈ 0.201 µM) |  | 0.034 µg/mL (≈ 0.116 µM) | <1000 µg/mL | 0.043 µg/mL (≈ 0.147 µM) | 0.046 µg/mL (≈ 0.157 µM) | 0.051 µg/mL (≈ 0.174 µM) |
| O=C1N[C@H]2[C@@H]3OP(=O)([O-])O[C@@H]3[C@@H](O)C[C@@H]2c2cc3c(cc21)OCO3.[Li+] (relative stereo) [11a, Lithium 7-deoxy-trans-dihydro-narcistatin] |  |  | >1 µg/mL | >1 µg/mL |  | >1 µg/mL |  | >1 µg/mL | >1 µg/mL | >1 µg/mL |
| O=C1N[C@H]2[C@@H]3OP(=O)([O-])O[C@@H]3[C@@H](O)C[C@@H]2c2cc3c(cc21)OCO3.[K+] (relative stereo) [11b, Potassium 7-deoxy-trans-dihydro-narcistatin] |  |  | >1 µg/mL | >1 µg/mL |  | >1 µg/mL |  | >1 µg/mL | >1 µg/mL | >1 µg/mL |
| O=C1N[C@H]2[C@@H]3OP(=O)([O-])O[C@@H]3[C@@H](O)C[C@@H]2c2cc3c(c(O)c21)OCO3.[Li+] (relative stereo) [12a, Lithium trans-dihydro-narcistatin] |  |  | >1 µg/mL | >1 µg/mL |  | >1 µg/mL |  | >1 µg/mL | >1 µg/mL | >1 µg/mL |
| O=C1N[C@H]2[C@@H]3OP(=O)([O-])O[C@@H]3[C@@H](O)C[C@@H]2c2cc3c(c(O)c21)OCO3.[K+] (relative stereo) [12b, Potassium trans-dihydro-narcistatin] |  |  | 0.54 µg/mL | >1 µg/mL |  | 0.64 µg/mL |  | >1 µg/mL | >1 µg/mL | >1 µg/mL |
| O=C1N[C@H]2[C@@H]3OP(=O)([O-])O[C@@H]3[C@@H](O)C[C@@H]2c2cc3c(cc21)OCO3.[Na+] (relative stereo) [compound 11, Sodium 7-Deoxy-trans-dihydro-narcistatin] |  |  | >10 µg/mL | >10 µg/mL |  | 7.2 µg/mL |  | >10 µg/mL | >10 µg/mL | >10 µg/mL |
| O=C1N[C@H]2[C@@H]3OP(=O)([O-])O[C@@H]3[C@@H](O)C[C@@H]2c2cc3c(c(O)c21)OCO3.[Na+] (relative stereo) [compound 12, Sodium trans-dihydro-narcistatin] |  |  | 5.2 µg/mL | 8.8 µg/mL |  | 4.6 µg/mL |  | 7.8 µg/mL | 5.6 µg/mL | 9.6 µg/mL |
| O=C1N[C@@H]2C(=C[C@H](O)[C@@H](O)[C@H]2O)c2cc3c(cc21)OCO3 [2c, 7-deoxynarciclasine, reference compound] |  |  | 0.051 µg/mL (≈ 0.175 µM) | 0.120 µg/mL (≈ 0.412 µM) |  | 0.046 µg/mL (≈ 0.158 µM) | <1000 µg/mL | 0.053 µg/mL (≈ 0.182 µM) | 0.070 µg/mL (≈ 0.24 µM) | 0.084 µg/mL (≈ 0.288 µM) |
| O=C1NC2C(CC(O)C(O)C2O)c2cc3c(c(O)c21)OCO3 (stereo not drawn) [3a, cis-dihydronarciclasine, reference compound] | 3800 nM |  |  |  | completely inactive |  |  |  |  |  |
| O=C1N[C@@H]2C(=C[C@H](O)[C@H]3OP(=O)([O-])O[C@H]32)c2cc3c(cc21)OCO3.[Li+] [10a, Lithium 7-Deoxy-narcistatin] |  |  | >1 µg/mL | >1 µg/mL |  | >1 µg/mL |  | >1 µg/mL | >1 µg/mL | >1 µg/mL |
| O=C1N[C@@H]2C(=C[C@H](O)[C@H]3OP(=O)([O-])O[C@H]32)c2cc3c(cc21)OCO3.[K+] [10b, Potassium 7-Deoxy-narcistatin] |  |  | >1 µg/mL | >1 µg/mL |  | >1 µg/mL |  | >1 µg/mL | >1 µg/mL | >1 µg/mL |
| O=C1N[C@@H]2C(=C[C@H](O)[C@H]3OP(=O)([O-])O[C@H]32)c2cc3c(cc21)OCO3.[Na+] [compound 10, Sodium 7-Deoxy-narcistatin] |  |  | 3.9 µg/mL | 6.3 µg/mL |  | 4.0 µg/mL |  | 4.7 µg/mL | 5.3 µg/mL | 5.6 µg/mL |
